{
  "source": "paper PMC7000209",
  "about": "“Novel small molecule modulators of quorum sensing in avian pathogenic Escherichia coli (APEC)” (Virulence, 2018)",
  "key": {"sheep RBCs": {"test_system": "sheep RBCs", "details": "1 h, 100 µM", "quoted_text": "The hemolytic activity of the selected AI-2 inhibitors was determined as described before [56]. Briefly, 200 µL of the 10% RBCs (LAMPIRE Biological Laboratories) suspension in PBS was incubated with 100 μM of each compound for 1 h in a 96-well plate. The plate was then centrifuged at 5000 × g for 5 min, placed on ice for 5 min and the absorbance of the supernatant was measured at 540 nm. PBS, 1% DMSO, and 0.1% Triton X-100 were used as controls. Two independent experiments were conducted in triplicate wells in each experiment."}, "chicken RBCs": {"test_system": "chicken RBCs", "details": "1 h, 100 µM"}, "APEC O78 in THP-1 cells": {"test_system": "APEC O78 in THP-1 cells", "experiment": "Intracellular survival assay, APEC O78 in THP-1 cells", "format": "cell-based, avian pathogenic E. coli (APEC) O78", "details": "MOI 100, 100 µM, 6 h, vs DMSO treated control", "description": "The effect of the selected AI-2 inhibitors on the survival of APEC in macrophage cells was tested as described before. Briefly, HD-11 cells was grown as described above and infected with 1 × 10^7 CFU (MOI = 100) of mid-log phase APEC strains (O78, O1 and O2) at 37 °C for 1 h. Cells were washed with PBS and treated with gentamicin (150 μg/mL) for 1 h to kill the extracellular bacteria. The cells were then washed and incubated with 100 µM of each compound in media containing 10 μg/mL of gentamicin at 37 °C for 6 h. Following treatment, cells were washed, lysed with 0.1% Triton X-100 for 5 min, ten-fold serially diluted in PBS and plated on LB agar plates to determine CFUs. Cells treated with chloramphenicol (40 μg/mL) and 1 μL of 100% DMSO were used as controls. The experiment was conducted two times with four replicates in each experiment. Intracellular survival was expressed as the log change of APEC CFUs in the AI-2 inhibitors treated cells.\nSimilarly, the intracellular survival assay was also performed in THP-1 cells (ATCC® TIB-202™) as described above. The THP-1 cells were grown in RPMI 1640 medium (Gibco) supplemented with 10% FBS and 2 mM glutamine. […] The cells (1.4 × 10^5 cells/well) were grown in a 96-well plate in a 5% CO2 incubator at 37 °C for 48 h, infected with APEC (MOI = 100), treated with each compound and the intracellular bacteria was determined as above."}, "HD-11 cells": {"test_system": "HD-11 cells", "experiment": "Lactate dehydrogenase (LDH) cytotoxicity assay, HD-11", "format": "cell-based, chicken", "details": "100 µM, 24 h", "description": "The selected 10 AI-2 inhibitors were evaluated for their toxicity to Caco-2 (ATCC® HTB-37™) using LDH assay. Briefly, Caco-2 cells (1.4 × 10^5 cells/well) were grown in a 96-well plate in minimal essential medium (MEM) supplemented with 20% fetal bovine serum (FBS; Gibco), 1% non-essential amino acid (NEAA, Invitrogen Life Technologies) and 1mM sodium pyruvate, at 37 °C in a humidified 5% CO2 incubator for 48 h until a complete monolayer was formed. For LDH assay, cells were washed twice with media containing no FBS/no antibiotics and incubated with 150 µL of fresh media containing 100 μM of each compound at 37 °C for 24 h in a humidified 5% CO2 incubator. Fifty microliters of supernatant was analyzed using LDH Cytotoxicity Assay Kit (Thermo Scientific).\nToxicity was also determined on HD-11 cells (CVCL-4685). The HD-11 cells (1.4 × 10^5 cells/well) were grown in Iscove’s modified Dulbecco’s medium (IMEM; Gibco) supplemented with 2 mM glutamine and 10% FBS at 37 °C in a humidified 5% CO2 for 48 h until a monolayer was completely formed. LDH assay was conducted as described above."}},
  "data": [
    {"smiles": "NC(=O)c1ccccc1Nc1cccc(C(F)(F)F)c1", "note": "[C3, 2-{[3-(trifluoromethyl)phenyl]amino}benzamide]", "values": [
      {"measurement": "hemolytic activity", "setting": "sheep RBCs", "value": 20.6, "unit": "%"},
      {"measurement": "hemolytic activity", "setting": "chicken RBCs", "value": 6.4, "unit": "%"}
    ]},
    {"smiles": "OCCC1CN(C2CCN(c3ccccc3)CC2)CCN1CCCc1ccccc1", "note": "(centres unmarked) [C10, 2-[4-(1-phenyl-4-piperidinyl)-1-(3-phenylpropyl)-2-piperazinyl]ethanol]", "values": [
      {"measurement": "reduction of intracellular survival of APEC O78", "setting": "APEC O78 in THP-1 cells", "value": "up to 0.7 logs"}
    ]},
    {"smiles": "Cc1ccc(CN2CCN(CCCc3ccccc3)CC2)cc1", "note": "[C5, 1-(4-methylbenzyl)-4-(3-phenylpropyl)piperazine]", "values": [
      {"measurement": "cytotoxicity (LDH release)", "setting": "HD-11 cells", "value": "less than 10%"}
    ]},
    {"smiles": "CCc1ccccc1Nc1nc(-c2c(C)nc3ccccn23)cs1", "note": "[C8, N-(2-ethylphenyl)-4-(2-methylimidazo[1,2-a]pyridin-3-yl)-1,3-thiazol-2-amine]", "values": [
      {"measurement": "cytotoxicity (LDH release)", "setting": "HD-11 cells", "value": "less than 10%"}
    ]}
  ]
}
